Data on 16 compounds can be found in patent US12410208B2, “(2-acetamidyl)thio-beta-D-galactopyranoside derivatives” (Idorsia Pharmaceuticals Ltd, priority 2020, dated 2025).

Structures are written as SMILES. Like-named read-outs stand apart in the source and are kept apart here.

The target in assay [1] is biotinylated human Gal-3 (hGal-3) (Homo sapiens, UniProt P17931). As to the kind of experiment: Competitive binding assay: biotinylated hGal-3 binding to microplate-adsorbed asialofetuin (ASF), spectrophotometric. Summed up:
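Competitive binding of biotinylated hGal-3 to plate-adsorbed asialofetuin was measured with serially diluted compounds over 3 h at 4° C. Bound protein was detected with streptavidin-peroxidase and ABTS substrate by absorbance. IC50 values are means of several measurements.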

In another assay the target is human Gal-1 (hGal-1) (Homo sapiens, UniProt P09382). Description: Competitive binding assay: biotinylated hGal-1 binding to microplate-adsorbed asialofetuin (ASF), spectrophotometric. Particulars: hGal-1 binding to asialofetuin; Table 15; R and S epimers of selected Examples also listed; read-out: IC50 (Galectin-1 inhibition). Summed up:
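Biotinylated hGal-1 (300-1000 ng/mL) incubated with compound on asialofetuin-coated plates 3 hours at 4 °C, washed, then streptavidin-peroxidase (80 ng/mL) 1 hour at 4 °C. ABTS substrate read spectrophotometrically; IC50 reported as mean of several measurements.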

Setting [2] is: Table 12, hGal-3, read-out: IC50 (Gal-3 inhibition).
Where [3] appears, read: Gal-3 inhibition, Table 5, read-out: IC50.

By IC50 is commonly meant the concentration that gives 50% inhibition.

human Gal-1 (hGal-1), sequence (P09382 whole entry): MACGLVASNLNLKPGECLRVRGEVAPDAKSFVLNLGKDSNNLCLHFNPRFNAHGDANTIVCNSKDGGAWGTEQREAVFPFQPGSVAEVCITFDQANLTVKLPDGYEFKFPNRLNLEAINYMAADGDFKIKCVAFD
biotinylated human Gal-3 (hGal-3), sequence (P17931 whole entry): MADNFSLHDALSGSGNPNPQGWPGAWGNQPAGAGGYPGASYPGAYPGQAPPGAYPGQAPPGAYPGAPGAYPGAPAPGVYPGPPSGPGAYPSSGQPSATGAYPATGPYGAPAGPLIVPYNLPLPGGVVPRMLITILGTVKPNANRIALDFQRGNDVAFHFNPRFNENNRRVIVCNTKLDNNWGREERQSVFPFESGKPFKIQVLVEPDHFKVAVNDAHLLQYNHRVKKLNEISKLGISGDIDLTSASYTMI

As to `CO[C@@H]1[C@@H](n2cc(-c3cc(F)c(F)c(F)c3)nn2)[C@@H](O)[C@@H](CO)O[C@H]1SC(C(=O)N(C)C1CCOCC1)C1(O)CCC(F)(F)CC1` (stereo partly drawn) [Example 2.44.213.I., 2-(4,4-Difluoro-1-hydroxycyclohexyl)-2-(((2S,3R,4S,5R,6R)-5-hydroxy-6-(hydroxymethyl)-3-methoxy-4-(4-(3,4,5-trifluorophenyl)-1H-1,2,3-triazol-1-yl)tetrahydro-2H-pyran-2-yl)thio)-N-methyl-N-(tetrahydro-2H-pyran-4-yl)acetamide], the IC50 in assay [1] (setting [2]) is 0.07 µM; at human Gal-1 (hGal-1), 0.15 µM.
For `CCN(CC1CCOCC1)C(=O)C(S[C@@H]1O[C@H](CO)[C@H](O)[C@H](n2cc(-c3cc(F)c(F)c(F)c3)nn2)[C@H]1OC)C1(O)CCC(F)(F)CC1` (some centres unmarked) [Example 2.44.214.I.], the IC50 turned out to be 0.03 µM in assay [1] (Table 10, hGal-3, read-out: IC50 (Gal-3 inhibition)) and 0.02 µM on human Gal-1 (hGal-1).
For `CO[C@@H]1[C@@H](n2cc(-c3cc(F)c(F)c(F)c3)nn2)[C@@H](O)[C@@H](CO)O[C@H]1SC(C(=O)N(C)CCC1CC1)C1(O)CCC(F)(F)CC1` (stereo partly drawn) [Example 2.44.217.I., N-(2-Cyclopropylethyl)-2-(4,4-difluoro-1-hydroxycyclohexyl)-2-(((2S,3R,4S,5R,6R)-5-hydroxy-6-(hydroxymethyl)-3-methoxy-4-(4-(3,4,5-trifluorophenyl)-1H-1,2,3-triazol-1-yl)tetrahydro-2H-pyran-2-yl)thio)-N-methylacetamide], the IC50 in assay [1] (setting [2]) was 0.05 µM; at human Gal-1 (hGal-1), 0.11 µM.
As to `CN(CC1CC1)C(=O)C(S[C@@H]1O[C@H](CO)[C@H](O)[C@H](n2cc(-c3cc(F)c(F)c(F)c3)nn2)[C@H]1O)C1(O)CCC(F)(F)CC1` (stereo partly drawn) [Example 2.44.218., N-(Cyclopropylmethyl)-2-(4,4-difluoro-1-hydroxycyclohexyl)-2-(((2S,3R,4S,5R,6R)-3,5-dihydroxy-6-(hydroxymethyl)-4-(4-(3,4,5-trifluorophenyl)-1H-1,2,3-triazol-1-yl)tetrahydro-2H-pyran-2-yl)thio)-N-methylacetamide], the IC50 was 0.02 µM in assay [1] (setting [3]) and 0.03 µM at human Gal-1 (hGal-1).
For `CO[C@@H]1[C@@H](n2cc(-c3cc(F)c(F)c(F)c3)nn2)[C@@H](O)[C@@H](CO)O[C@H]1SC(C(=O)N(C)CC1CC1)C1(O)CCC(F)(F)CC1` (stereo partly drawn) [Example 2.44.218.I., N-(Cyclopropylmethyl)-2-(4,4-difluoro-1-hydroxycyclohexyl)-2-(((2S,3R,4S,5R,6R)-5-hydroxy-6-(hydroxymethyl)-3-methoxy-4-(4-(3,4,5-trifluorophenyl)-1H-1,2,3-triazol-1-yl)tetrahydro-2H-pyran-2-yl)thio)-N-methylacetamide], the IC50 in assay [1] (setting [2]) came to 0.03 µM; on human Gal-1 (hGal-1), 0.08 µM.
On to `CN(CC1CC1)C(=O)[C@H](S[C@@H]1O[C@H](CO)[C@H](O)[C@H](n2cc(-c3cc(F)c(F)c(F)c3)nn2)[C@H]1O)C1(O)CCC(F)(F)CC1` [Example 2.44.218R., (R)-N-(Cyclopropylmethyl)-2-(4,4-difluoro-1-hydroxycyclohexyl)-2-(((2S,3R,4S,5R,6R)-3,5-dihydroxy-6-(hydroxymethyl)-4-(4-(3,4,5-trifluorophenyl)-1H-1,2,3-triazol-1-yl)tetrahydro-2H-pyran-2-yl)thio)-N-methylacetamide], for which the figures for the IC50 (in assay [1] (setting [3]); on human Gal-1 (hGal-1)) were 1.15 µM and 1.9 µM, respectively.
Take `CN(CC1CC1)C(=O)[C@@H](S[C@@H]1O[C@H](CO)[C@H](O)[C@H](n2cc(-c3cc(F)c(F)c(F)c3)nn2)[C@H]1O)C1(O)CCC(F)(F)CC1` [Example 2.44.218S., (S)-N-(Cyclopropylmethyl)-2-(4,4-difluoro-1-hydroxycyclohexyl)-2-(((2S,3R,4S,5R,6R)-3,5-dihydroxy-6-(hydroxymethyl)-4-(4-(3,4,5-trifluorophenyl)-1H-1,2,3-triazol-1-yl)tetrahydro-2H-pyran-2-yl)thio)-N-methylacetamide]: the IC50 in assay [1] (setting [3]) was determined as 0.05 µM; at human Gal-1 (hGal-1) it was 0.04 µM.
For `CN(C(=O)C(S[C@@H]1O[C@H](CO)[C@H](O)[C@H](n2cc(-c3cc(F)c(F)c(F)c3)nn2)[C@H]1O)C1(O)CCC(F)(F)CC1)C1CC1` (stereo partly drawn) [Example 2.44.221., N-Cyclopropyl-2-(4,4-difluoro-1-hydroxycyclohexyl)-2-(((2S,3R,4S,5R,6R)-3,5-dihydroxy-6-(hydroxymethyl)-4-(4-(3,4,5-trifluorophenyl)-1H-1,2,3-triazol-1-yl)tetrahydro-2H-pyran-2-yl)thio)-N-methylacetamide] the same measures were 0.03 µM and 0.06 µM.
Consider `CO[C@@H]1[C@@H](n2cc(-c3cc(F)c(F)c(F)c3)nn2)[C@@H](O)[C@@H](CO)O[C@H]1SC(C(=O)N(C)CC(C)(C)F)C1(O)CCC(F)(F)CC1` (stereo partly drawn) [Example 2.44.222.1., 2-(4,4-Difluoro-1-hydroxycyclohexyl)-N-(2-fluoro-2-methylpropyl)-2-(((2S,3R,4S,5R,6R)-5-hydroxy-6-(hydroxymethyl)-3-methoxy-4-(4-(3,4,5-trifluorophenyl)-1H-1,2,3-triazol-1-yl)tetrahydro-2H-pyran-2-yl)thio)-N-methylacetamide], for which the IC50 is 0.05 µM in assay [1] (setting [2]) and 0.22 µM at human Gal-1 (hGal-1).
On the same counts, the results for `CO[C@@H]1[C@@H](n2cc(-c3cc(F)c(F)c(F)c3)nn2)[C@@H](O)[C@@H](CO)O[C@H]1S[C@@H](C(=O)N(C)CC(C)(C)F)C1(O)CCC(F)(F)CC1` [Example 2.44.222R.I., (R)-2-(4,4-Difluoro-1-hydroxycyclohexyl)-N-(2-fluoro-2-methylpropyl)-2-(((2S,3R,4S,5R,6R)-5-hydroxy-6-(hydroxymethyl)-3-methoxy-4-(4-(3,4,5-trifluorophenyl)-1H-1,2,3-triazol-1-yl)tetrahydro-2H-pyran-2-yl)thio)-N-methylacetamide] are 7.9 µM and 8.78 µM.
For `CO[C@@H]1[C@@H](n2cc(-c3cc(F)c(F)c(F)c3)nn2)[C@@H](O)[C@@H](CO)O[C@H]1S[C@H](C(=O)N(C)CC(C)(C)F)C1(O)CCC(F)(F)CC1` [Example 2.44.222S.I., (S)-2-(4,4-Difluoro-1-hydroxycyclohexyl)-N-(2-fluoro-2-methylpropyl)-2-(((2S,3R,4S,5R,6R)-5-hydroxy-6-(hydroxymethyl)-3-methoxy-4-(4-(3,4,5-trifluorophenyl)-1H-1,2,3-triazol-1-yl)tetrahydro-2H-pyran-2-yl)thio)-N-methylacetamide] the same measures were 0.01 µM and 0.07 µM.
For the compound `CN(CC1(F)CCCC1)C(=O)C(S[C@@H]1O[C@H](CO)[C@H](O)[C@H](n2cc(-c3cc(F)c(F)c(F)c3)nn2)[C@H]1O)C1(O)CCC(F)(F)CC1` (stereo partly drawn) [Example 2.44.223R., 2-(4,4-Difluoro-1-hydroxycyclohexyl)-2-(((2S,3R,4S,5R,6R)-3,5-dihydroxy-6-(hydroxymethyl)-4-(4-(3,4,5-trifluorophenyl)-1H-1,2,3-triazol-1-yl)tetrahydro-2H-pyran-2-yl)thio)-N-((1-fluorocyclopentyl)methyl)-N-methylacetamide], the IC50 in assay [1] (setting [3]) was 3.57 µM; on human Gal-1 (hGal-1), 13.4 µM.
Turning to `CN(CC1(F)CCCC1)C(=O)[C@@H](S[C@@H]1O[C@H](CO)[C@H](O)[C@H](n2cc(-c3cc(F)c(F)c(F)c3)nn2)[C@H]1O)C1(O)CCC(F)(F)CC1` [Example 2.44.223S., (S)-2-(4,4-Difluoro-1-hydroxycyclohexyl)-2-(((2S,3R,4S,5R,6R)-3,5-dihydroxy-6-(hydroxymethyl)-4-(4-(3,4,5-trifluorophenyl)-1H-1,2,3-triazol-1-yl)tetrahydro-2H-pyran-2-yl)thio)-N-((1-fluorocyclopentyl)methyl)-N-methylacetamide], the IC50 in assay [1] (setting [3]) worked out at 0.07 µM; at human Gal-1 (hGal-1), 0.08 µM.
For the compound `CN(CCC(C)(C)C)C(=O)C(S[C@@H]1O[C@H](CO)[C@H](O)[C@H](n2cc(-c3cc(F)c(F)c(F)c3)nn2)[C@H]1O)C1(O)CCC(F)(F)CC1` (stereo partly drawn) [Example 2.44.225., 2-(4,4-Difluoro-1-hydroxycyclohexyl)-2-(((2S,3R,4S,5R,6R)-3,5-dihydroxy-6-(hydroxymethyl)-4-(4-(3,4,5-trifluorophenyl)-1H-1,2,3-triazol-1-yl)tetrahydro-2H-pyran-2-yl)thio)-N-(3,3-dimethylbutyl)-N-methylacetamide], the IC50 in assay [1] (setting [3]) is 0.07 µM; on human Gal-1 (hGal-1), 0.15 µM.
For the compound `CO[C@@H]1[C@@H](n2cc(-c3cc(F)c(F)c(F)c3)nn2)[C@@H](O)[C@@H](CO)O[C@H]1SC(C(=O)N(C)CCC(C)(C)C)C1(O)CCC(F)(F)CC1` (stereo partly drawn) [Example 2.44.225.I., 2-(4,4-Difluoro-1-hydroxycyclohexyl)-N-(3,3-dimethylbutyl)-2-(((2S,3R,4S,5R,6R)-5-hydroxy-6-(hydroxymethyl)-3-methoxy-4-(4-(3,4,5-trifluorophenyl)-1H-1,2,3-triazol-1-yl)tetrahydro-2H-pyran-2-yl)thio)-N-methylacetamide], the values for the IC50 (in assay [1] (setting [2]); on human Gal-1 (hGal-1)) were 0.1 µM and 0.12 µM, respectively.
In the case of `O=C(C(S[C@@H]1O[C@H](CO)[C@H](O)[C@H](n2cc(-c3cc(F)c(F)c(F)c3)nn2)[C@H]1O)C1(O)CCC(F)(F)CC1)N1CCC(F)(F)CC1` (stereo partly drawn) [Example 2.44.226., 2-(4,4-Difluoro-1-hydroxycyclohexyl)-1-(4,4-difluoropiperidin-1-yl)-2-(((2S,3R,4S,5R,6R)-3,5-dihydroxy-6-(hydroxymethyl)-4-(4-(3,4,5-trifluorophenyl)-1H-1,2,3-triazol-1-yl)tetrahydro-2H-pyran-2-yl)thio)ethan-1-one], the figures for the IC50 (in assay [1] (setting [3]); on human Gal-1 (hGal-1)) were 0.09 µM and 0.11 µM, respectively.
